Results taken from US20120165325A1, “Stable forms of N-(2,6-Dimethyl-4-morpholin-4-yl-phenyl)-3,3-dimethyl-butyramide” (H. Lundbeck A/S, priority 2009, published 2012).

Columns and labels:
Male Wistar rats [1] = assay: Amphetamine challenge: antagonism of d-amphetamine induced hyperactivity; type: in vivo; conditions: rat; s.c. 30 min before d-amphetamine sulphate 0.5 mg/kg; motility over 2 hours; std. dev. in brackets
Method: Subjects. Male Wistar rats (Taconic, Denmark) weighing 170-240 g are used. The animals were housed under a 12-hr light/dark cycle under controlled conditions for regular in-door temperature (21±2° C.) and humidity (55±5%) with food and tap water available ad libitum. Eight rats were used at each dose level and in the parallel control group receiving the vehicle to the test compound plus d-amphetamine and the group receiving vehicle injections only.
Experimental procedure. The experiment was made in normal light conditions in an undisturbed room. The test substance was injected 30 min before s.c. before the injection of d-amphetamine sulphate (0.5 mg/kg). Immediately after injection of d-amphetamine, the rats were placed individually in the test cages that were placed in a U-frame, equipped with 4 infrared light sources and photocells. The light beams crossed the cage 4 cm above the cage floor. Recording of a motility count required interruption of adjacent light beams, thus avoiding counts induced by stationary movements of the rat. Motility (counts) was recorded for a period of 2 hours. The mean motility induced by vehicle (saline) treatment in the absence of d-amphetamine was used as baseline. The 100 percent effect of d-amphetamine was accordingly calculated to be total motility counts minus baseline. The response in groups receiving test compound was thus determined by the total motility counts minus baseline, expressed in percent of the similar result recorded in the parallel amphetamine control group. The percent responses were converted to percent inhibition from which ED50 values were calculated by means of log-probit analyses. In a parallel set of data, the potential sedative properties (motility inhibition) of the test compounds were evaluated using essentially the same procedure with the exception of not administering d-amphetamine-sulphate at the initiation of locomotor assessment.

Male Wistar rats [2] = assay: Motility inhibition (potential sedative properties, without d-amphetamine); type: in vivo; conditions: rat, std. dev. in brackets
Text: Subjects. Male Wistar rats (Taconic, Denmark) weighing 170-240 g are used.
Experimental procedure. […] Recording of a motility count required interruption of adjacent light beams, thus avoiding counts induced by stationary movements of the rat.

Male NMRI mice [3] = assay: Amphetamine sensitisation: inhibition of the sensitised behavioural response to amphetamine; type: in vivo, mouse; conditions: amphetamine-pretreated mice, s.c. 30 min before D-amphetamine challenge 1.25 mg/kg s.c., 30 min test, S.D. in brackets
Method: Subjects. […] The animals were housed 6 mice pr cage in a 12-hr light/dark cycle under controlled conditions for regular in-door temperature (21±2° C.) and humidity (55±5%) with food and tap water available ad libitum.
Experimental procedure. […] 5×8 infrared light sources and photocells interspaced by 4 cm monitor the locomotor activity.
Administration of compounds.
Data analyses. […] A therapeutic index value can subsequently be calculated by dividing the first ED50 by the second.

Male NMRI mice [4] = assay: Inhibition of baseline motility in vehicle-pretreated, vehicle-challenged mice; type: in vivo, mouse; conditions: 30 min test
Method: (§1) Subjects. Male NMRI mice (Charles River) weighing approx. 35 g were used. The animals were housed 6 mice pr cage in a 12-hr light/dark cycle under controlled conditions for regular in-door temperature (21±2° C.) and humidity (55±5%) with food and tap water available ad libitum. 12 mice were used pr experimental group.
Experimental procedure. All mice were pre-treated once daily for five days with either d-amphetamine sulphate (2.5 mg/kg s.c.) or saline (10 ml/kg). For the 17 days between the last day of pre-treatment and the test day, the animals were kept in their home cage receiving the standard care as described above. […] The recording of a motility counted requires interruption of adjacent light beams, thereby avoiding counts induced by stationary movements of the mice. […]
Data analyses. […] That is, the response in amphetamine-sensitized groups receiving test compound was thus determined as the sensitised response minus the baseline motility, expressed in percent of the similar result recorded in the sensitized amphetamine response group. […] Similarly, an ED50 for inhibiting baseline motility was calculated by expressed the motility response in vehicle-pretreated, vehicle-challenged, drug-treated animals relative to the baseline motility response. A therapeutic index value can subsequently be calculated by dividing the first ED50 by the second.

[5] = Intrinsic dissolution rate (37C); type: physicochemical
[6] = Solid form stability at 60° C. and 95% relative humidity; type: physicochemical; conditions: relative humidity of 95%
Male NMRI mice [7] = assay: Forced swim test; type: in vivo, mouse; conditions: 30 min before test, last 3 min of 6 min swim, vehicle = 100
Method: as §1, with “weighing 23-25” for “weighing approx. 35”, “The mice” for “The animals”, “were kept 8” for “were housed 6”, “libitum. 8” for “libitum. 12”
Experimental procedure. The mice were placed in 2000 ml beaker containing 1200 ml of tempered water (25° C.) and left to swim for 6 min. The performance of the mice was video recorded, digitalized and analysed by means of a digital analysis system (Bioobserve). The time spent immobile for the last 3 min. of the test session was quantified for each mouse.
Treatment. 30 min. before the test, mice were treated s.c. with N-(2,6-dimethyl-4-morpholin-4-yl-phenyl)-3,3-dimethyl-butyramide or vehicle (10-%-2-OH-propyl-cyclodextrin, 10 ml/kg). In addition as positive control, imipramine-HCl (40 mg/kg) and a saline control (10 ml/kg) was included.
Analyses. The time spent immobile was statistically compared across the experimental groups against the relevant control group by means of one-way analysis of variance. A post-hoc test (Student-Newman-Keuls) was employed when appropriate. P-levels <0.05 were considered significant.

**Q.** Which results are given for Lithium-chloride?
**A.** Amphetamine antagonism ED50 ± std. dev. (Male Wistar rats [1]): 12 (1.7) mg/kg; Motility inhibition ED50 ± std. dev. (Male Wistar rats [2]): >40 mg/kg; Inhibition of amphetamine sensitised response. ED50 (±S.D.) (Male NMRI mice [3]): 34 (7.2) mg/kg; Inhibition of baseline motility. ED50 (±S.D.) (Male NMRI mice [4]): >>40 mg/kg

**Q.** What does the source list for `Cc1cc(N2CCOCC2)cc(C)c1NC(=O)CC(C)(C)C` [γ form, N-[2,6-Dimethyl-4-morpholin-4-yl-phenyl]-3,3-dimethyl-butyramide, γ form]?
**A.** Intrinsic dissolution rate (37C) ([5]; listed as γ): 0.036 mg//cm^2/min; Stability: solid form stable for ([6]; listed as γ): Solid form stable for >14 days at 60 °C

**Q.** For `Cc1cc(N2CCOCC2)cc(C)c1NC(=O)CC(C)(C)C` [β form, N-(2,6-Dimethyl-4-morpholin-4-yl-phenyl)-3,3-dimethyl-butyramide, β form], which “Intrinsic dissolution rate (37C)” value ([5]; listed as β) is on record?
**A.** 0.026 mg//cm^2/min

**Q.** And the “Stability: solid form stable for” value ([6]; listed as β)?
**A.** Solid form stable for >90 days at 60 °C

**Q.** Which results are given for `Cc1cc2c(s1)Nc1ccccc1N=C2N1CCN(C)CC1` [Olanzapine, reference compound]?
**A.** ED50 (Male Wistar rats [1]): 0.21 mg/kg; ED50 (Male NMRI mice [3]; Mus musculus): 0.11 mg/kg; Immobility in % (±S.D.) (Male NMRI mice [7]; dose 0.31 mg/kg): 96%; Immobility in % (±S.D.) (Male NMRI mice [7]; dose 1.3 mg/kg): 95%

**Q.** What does the source list for `Cc1cc(N2CCOCC2)cc(C)c1NC(=O)CC(C)(C)C` [α form, N-(2,6-Dimethyl-4-morpholin-4-yl-phenyl)-3,3-dimethyl-butyramide, α form]?
**A.** Intrinsic dissolution rate (37C) ([5]; listed as α): 0.021 mg//cm^2/min; Stability: solid form stable for ([6]; listed as α): Solid form stable for >90 days at 60 °C
